Consider 1 molecule from patent US11613531B2, “Inhibitors of RHO associated coiled-coil containing protein kinase” (Kadmon Corporation, LLC, priority 2017, dated 2023).

Structures are written as SMILES.

The target of assay [1] is Recombinant ROCK2 (amino acids 1-552) (Homo sapiens (Human), UniProt O75116). Kind of assay: Z′-Lyte kinase assay, ROCK2. It is filed as biochemical. The conditions noted are these: 9 points 2-fold serial dilution. The procedure, abridged: (§1)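 IC50s derive from nonlinear curve fits over a 9-point, 2-fold dilution series, with single-point inhibition at 1 μM expressed relative to DMSO. Activity of truncated human ROCK1 (residues 1-535) and ROCK2 (residues 1-552) measured with the Z′-Lyte kinase format.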
Sequence of Recombinant ROCK2 (amino acids 1-552) (O75116 1-552): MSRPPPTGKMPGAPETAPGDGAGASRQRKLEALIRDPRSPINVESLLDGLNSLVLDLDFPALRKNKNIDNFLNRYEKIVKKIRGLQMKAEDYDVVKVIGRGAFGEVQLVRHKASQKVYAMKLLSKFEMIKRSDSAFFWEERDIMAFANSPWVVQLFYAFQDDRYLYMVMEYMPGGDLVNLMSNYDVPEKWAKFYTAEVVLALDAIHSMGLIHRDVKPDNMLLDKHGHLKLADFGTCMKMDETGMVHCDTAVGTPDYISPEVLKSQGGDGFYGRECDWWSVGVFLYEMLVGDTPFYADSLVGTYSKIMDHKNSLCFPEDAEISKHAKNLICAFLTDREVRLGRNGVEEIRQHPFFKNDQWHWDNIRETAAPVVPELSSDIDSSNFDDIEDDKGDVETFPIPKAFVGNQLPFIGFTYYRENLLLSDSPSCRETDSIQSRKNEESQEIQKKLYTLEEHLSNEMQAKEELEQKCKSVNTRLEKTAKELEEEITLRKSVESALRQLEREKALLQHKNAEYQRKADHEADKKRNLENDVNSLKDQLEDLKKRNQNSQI

Assay [2] deals with phosphorylation of ROCK targets MLC and MYPT1 in A7R5 cells. Kind of assay: Western blot of A7R5 cell lysates (ppMlc, MYPT1). The conditions noted are these: 110 nM, 90 min. It is filed as cell-based, Rat. As to the method: FIG. 1c. Western blot of A7R5 cell lysates to visualize ppMlc (T18/S19) levels following treatment with the compound of Example 192 (“Example 192”) for 90 min. A7R5 cells were treated with the compound and ppMlc (T18/S19) levels were visualized by western blotting.
A7R5 cells were treated with the compound of Example 192 for 90 min and ppMlc (T18/S19) levels were visualized by western blotting.

Assay [3] relates to Bleomycin induced lung fibrosis in mice. The experiment in a line: Therapeutic bleomycin induced lung fibrosis model. It is filed as in vivo. The source says: FIG. 10a. ROCK inhibitor is therapeutically active in a mouse model of pulmonary fibrosis. Representative images of lung sections stained with Masson's trichrome to visualized fibrosis in the lungs of mice following therapeutic treatment with ROCK inhibitor in the bleomycin-induced lung injury model.
FIG. 10b. Quantitation of the decrease in the fibrosis index in the histopathological analysis of the images from ROCK inhibitor and vehicle treated mice in the bleomycin-induced lung injury model.
FIG. 10c. ROCK target engagement analysis in the lung tissue from the bleomycin-induced pulmonary fibrosis model.
Therapeutic Efficacy of Compounds in Bleomycin Induced Lung Fibrosis in Mice
Male C57B/L6 mice were housed for acclimation for no less than 7 days. After acclimation period, animals were randomly assigned to treatment groups. On day 0, mice were anesthetized with 5% isoflurane by inhalation for 10-15 mins and then suspended by their front teeth on a wire attached to a fixed animal operating plate. 50 μL of saline or bleomycin solution was administered via intratracheal instillation. […]
The activity of ROCK inhibitors in attenuating pulmonary fibrosis in a therapeutic dosing setting was assessed in a bleomycin-induced model, following intratracheal bleomycin installation to induce lung tissue damage and consequent fibrosis of the lung. […]
The improvement in the overall lung fibrosis was quantitated for each animal in the control and treatment groups. […]
In addition to the determination of the therapeutic activity of ROCK inhibition in the pulmonary fibrosis model, target engagement and the extent of ROCK inhibition in the lung of drug treated animals were also determined. Protein extracts were prepared from the snap frozen lung samples and separated on SDS-PAGE and analyzed by Western blotting. ROCK kinase direct target, phosphorylated myosin-binding subunit of myosin phosphatase (MYPT, pT853) and a ROCK pathway regulated protein CCN1 expression levels were detected. […] Western blot results were quantitated by the Image J densitometry program. […]

In assay [4] the target is Recombinant ROCK1 (amino acids 1-535) (Homo sapiens (Human), UniProt Q13464). Kind of assay: Z′-Lyte kinase assay, ROCK1. The conditions noted are these: 9 points 2-fold serial dilution. It is filed as biochemical. In a few lines: as §1
Sequence of Recombinant ROCK1 (amino acids 1-535) (Q13464 1-535): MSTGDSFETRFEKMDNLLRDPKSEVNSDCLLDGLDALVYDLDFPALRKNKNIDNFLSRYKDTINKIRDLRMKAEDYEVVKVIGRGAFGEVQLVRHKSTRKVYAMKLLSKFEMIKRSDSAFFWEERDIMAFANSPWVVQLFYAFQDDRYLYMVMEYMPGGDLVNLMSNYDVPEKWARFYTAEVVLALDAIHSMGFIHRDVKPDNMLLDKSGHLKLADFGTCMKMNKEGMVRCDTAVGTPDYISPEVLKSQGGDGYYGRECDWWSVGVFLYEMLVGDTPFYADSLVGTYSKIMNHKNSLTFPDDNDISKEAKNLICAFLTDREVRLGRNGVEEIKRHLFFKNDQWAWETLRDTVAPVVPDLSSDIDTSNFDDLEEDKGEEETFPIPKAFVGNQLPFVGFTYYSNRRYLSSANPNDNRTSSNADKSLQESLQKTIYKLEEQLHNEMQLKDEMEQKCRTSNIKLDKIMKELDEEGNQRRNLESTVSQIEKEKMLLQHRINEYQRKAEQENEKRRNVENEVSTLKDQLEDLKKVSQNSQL
[5] abbreviates: bleomycin treated mouse lungs, western blot.

With `Clc1cnc(N2C3CCC2CNC3)nc1Nc1ccc2[nH]ncc2c1` [Example 192, N-(2-(3,8-diazabicyclo[3.2.1]octan-8-yl)-5-chloropyrimidin-4-yl)-1H-indazol-5-amine], the IC50 in assay [1] was 12 nM. In addition, the “phosphorylation of ROCK targets MLC and MYPT1” value in assay [2] is “efficiently blocked”. Also, in assay [3] (setting [5]), the “CCN1 total protein levels in lung” value is “reduction” and the “phosphorylated MYPT (pT853) levels in lung” value was “reduction”. In assay [3] (mice, therapeutic dosing from day 7, Masson's trichrome-stained sections), the “collagen amounts in the lungs” value is reported as “significantly lower”. Further, in assay [4], the IC50 worked out at 5 nM.
